Source: PubChem BioAssay (NCI)
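Grown in 96-well plates, cells were treated for 48 hours with each compound at five concentrations. Insufficient inhibition: endpoint recorded as highest concentration tested. TGI is the concentration that stops growth completely.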

What was measured:
Assay in all cases: NCI-60 cell line screen, 48 h
[1] = tested on: 786-0 renal
[2] = tested on: A498 renal
[3] = tested on: A549 NSCLC
[4] = tested on: ACHN renal
[5] = tested on: BT-549 breast
[6] = tested on: CAKI-1 renal
[7] = tested on: CCRF-CEM leukemia
[8] = tested on: COLO 205 colon
[9] = tested on: DU-145 prostate
[10] = tested on: EKVX NSCLC
[11] = tested on: HCC-2998 colon
[12] = tested on: HCT-116 colon
[13] = tested on: HCT-15 colon
[14] = tested on: HL-60(TB) leukemia
[15] = tested on: HOP-92 NSCLC
[16] = tested on: HS 578T breast
[17] = tested on: HT29 colon
[18] = tested on: IGROV1 ovarian
[19] = tested on: K-562 leukemia
[20] = tested on: KM12 colon
[21] = tested on: LOX IMVI melanoma
[22] = tested on: M14 melanoma
[23] = tested on: MALME-3M melanoma
[24] = tested on: MCF7 breast
[25] = tested on: MDA-MB-231 breast
[26] = tested on: MDA-MB-435
[27] = tested on: MDA-N
[28] = tested on: MOLT-4 leukemia
[29] = tested on: NCI-H226 lung
[30] = tested on: NCI-H23 lung
[31] = tested on: NCI-H460 lung
[32] = tested on: NCI-H522 lung
[33] = tested on: NCI/ADR-RES ovarian
[34] = tested on: OVCAR-3 ovarian
[35] = tested on: OVCAR-4 ovarian
[36] = tested on: OVCAR-5 ovarian
[37] = tested on: OVCAR-8 ovarian
[38] = tested on: PC-3 prostate
[39] = tested on: RPMI-8226 leukemia
[40] = tested on: SF-268 CNS
[41] = tested on: SF-295 CNS
[42] = tested on: SF-539 CNS
[43] = tested on: SK-MEL-2 melanoma
[44] = tested on: SK-MEL-28 melanoma
[45] = tested on: SK-MEL-5 melanoma
[46] = tested on: SK-OV-3 ovarian
[47] = tested on: SN12C renal
[48] = tested on: SNB-19 CNS
[49] = tested on: SNB-75 CNS
[50] = tested on: SW-620 colon
[51] = tested on: T-47D breast
[52] = tested on: TK-10 renal
[53] = tested on: U251 CNS
[54] = tested on: UACC-257 melanoma
[55] = tested on: UACC-62 melanoma
[56] = tested on: UO-31 renal
[57] = tested on: HOP-62 NSCLC
[58] = tested on: RXF 393 renal

For O=C1C(OC(=O)c2ccccc2)=C(c2ccc(O)cc2)C(=O)C(OC(=O)c2ccccc2)=C1c1ccc(O)cc1, the TGI [1] was greater than 100 µM, the TGI [2] was greater than 100 µM and the TGI [3] was greater than 100 µM. For the same compound, the TGI [4] was greater than 100 µM, the TGI [5] was greater than 100 µM and the TGI [6] was greater than 100 µM. It also gave a TGI [7] greater than 100 µM, a TGI [8] greater than 100 µM and a TGI [9] greater than 100 µM. For the same compound, the TGI [10] was greater than 100 µM, the TGI [11] was greater than 100 µM and the TGI [12] was greater than 100 µM. The TGI [13] was greater than 100 µM, the TGI [14] was greater than 100 µM and the TGI [15] was greater than 100 µM. For the same compound, the TGI [16] was greater than 100 µM, the TGI [17] was greater than 100 µM and the TGI [18] was greater than 100 µM. The TGI [19] was greater than 100 µM, the TGI [20] was greater than 100 µM and the TGI [21] was greater than 100 µM. For the same compound, the TGI [22] was greater than 100 µM, the TGI [23] was greater than 100 µM and the TGI [24] was greater than 100 µM. It also gave a TGI [25] greater than 100 µM, a TGI [26] greater than 100 µM and a TGI [27] greater than 100 µM. For the same compound, the TGI [28] was greater than 100 µM, the TGI [29] was greater than 100 µM and the TGI [30] was greater than 100 µM. The TGI [31] was greater than 100 µM, the TGI [32] was greater than 100 µM and the TGI [33] was greater than 100 µM. It also gave a TGI [34] greater than 100 µM, a TGI [35] greater than 100 µM and a TGI [36] greater than 100 µM. It also gave a TGI [37] greater than 100 µM, a TGI [38] greater than 100 µM and a TGI [39] greater than 100 µM. It also gave a TGI [40] greater than 100 µM, a TGI [41] greater than 100 µM and a TGI [42] greater than 100 µM. It also gave a TGI [43] greater than 100 µM, a TGI [44] greater than 100 µM and a TGI [45] greater than 100 µM. For the same compound, the TGI [46] was greater than 100 µM, the TGI [47] was greater than 100 µM and the TGI [48] was greater than 100 µM. For the same compound, the TGI [49] was greater than 100 µM, the TGI [50] was greater than 100 µM and the TGI [51] was greater than 100 µM. The TGI [52] was greater than 100 µM, the TGI [53] was greater than 100 µM and the TGI [54] was greater than 100 µM. It also gave a TGI [55] greater than 100 µM and a TGI [56] greater than 100 µM.
With Cc1c(C2CCSc3ccccc3N2)sc2ccccc12 (centres undefined) the TGI [1] was greater than 100 µM, the TGI [3] was greater than 100 µM and the TGI [4] was greater than 100 µM. It also gave a TGI [5] greater than 100 µM, a TGI [6] greater than 100 µM and a TGI [8] greater than 100 µM. The TGI [9] was greater than 100 µM, the TGI [10] was greater than 100 µM and the TGI [11] was greater than 100 µM. It also gave a TGI [12] greater than 100 µM, a TGI [13] greater than 100 µM and a TGI [14] greater than 100 µM. It also gave a TGI [57] greater than 100 µM, a TGI [15] greater than 100 µM and a TGI [16] greater than 100 µM. For the same compound, the TGI [17] was greater than 100 µM, the TGI [18] was greater than 100 µM and the TGI [19] was greater than 100 µM. It also gave a TGI [20] greater than 100 µM, a TGI [21] greater than 100 µM and a TGI [22] greater than 100 µM. For the same compound, the TGI [23] was greater than 100 µM, the TGI [24] was greater than 100 µM and the TGI [25] was greater than 100 µM. The TGI [26] was greater than 100 µM, the TGI [27] was greater than 100 µM and the TGI [28] was greater than 100 µM. The TGI [29] was greater than 100 µM, the TGI [30] was greater than 100 µM and the TGI [31] was greater than 100 µM. The TGI [32] was greater than 100 µM, the TGI [33] was greater than 100 µM and the TGI [34] was greater than 100 µM. It also gave a TGI [35] greater than 100 µM, a TGI [37] greater than 100 µM and a TGI [38] greater than 100 µM. The TGI [39] was greater than 100 µM, the TGI [58] was greater than 100 µM and the TGI [40] was greater than 100 µM. For the same compound, the TGI [41] was greater than 100 µM, the TGI [42] was greater than 100 µM and the TGI [43] was greater than 100 µM. The TGI [44] was greater than 100 µM, the TGI [45] was greater than 100 µM and the TGI [46] was greater than 100 µM. For the same compound, the TGI [47] was greater than 100 µM, the TGI [48] was greater than 100 µM and the TGI [49] was greater than 100 µM. It also gave a TGI [50] greater than 100 µM, a TGI [51] greater than 100 µM and a TGI [52] greater than 100 µM. The TGI [53] was greater than 100 µM, the TGI [54] was greater than 100 µM and the TGI [55] was greater than 100 µM. It also gave a TGI [56] greater than 100 µM.
For N/C(CC(=O)NOC(=O)c1ccccc1)=N/OC(=O)c1ccccc1, the TGI [1] was greater than 100 µM, the TGI [2] was greater than 100 µM and the TGI [3] was greater than 100 µM. It also gave a TGI [4] greater than 100 µM, a TGI [5] of 77.6 µM and a TGI [6] greater than 100 µM. The TGI [7] was greater than 100 µM, the TGI [8] was greater than 100 µM and the TGI [9] was greater than 100 µM. For the same compound, the TGI [10] was 77.5 µM, the TGI [12] was greater than 100 µM and the TGI [13] was greater than 100 µM. It also gave a TGI [14] greater than 100 µM, a TGI [57] greater than 100 µM and a TGI [15] greater than 100 µM. The TGI [16] was greater than 100 µM, the TGI [17] was greater than 100 µM and the TGI [18] was 31.7 µM. For the same compound, the TGI [19] was 71.7 µM, the TGI [20] was greater than 100 µM and the TGI [21] was 38.5 µM. It also gave a TGI [22] greater than 100 µM, a TGI [23] greater than 100 µM and a TGI [24] of 92.4 µM. It also gave a TGI [25] greater than 100 µM, a TGI [26] greater than 100 µM and a TGI [27] greater than 100 µM. For the same compound, the TGI [28] was 75.9 µM, the TGI [29] was 92.5 µM and the TGI [30] was greater than 100 µM. It also gave a TGI [31] greater than 100 µM, a TGI [33] greater than 100 µM and a TGI [34] greater than 100 µM. It also gave a TGI [35] of 75 µM, a TGI [36] greater than 100 µM and a TGI [37] greater than 100 µM. The TGI [38] was greater than 100 µM, the TGI [39] was greater than 100 µM and the TGI [58] was 60.6 µM. The TGI [40] was 75.1 µM, the TGI [41] was 61.6 µM and the TGI [42] was 54.8 µM. For the same compound, the TGI [44] was 99.4 µM, the TGI [45] was greater than 100 µM and the TGI [46] was 97.3 µM. For the same compound, the TGI [47] was greater than 100 µM, the TGI [48] was greater than 100 µM and the TGI [50] was greater than 100 µM. It also gave a TGI [51] greater than 100 µM, a TGI [52] greater than 100 µM and a TGI [53] greater than 100 µM. The TGI [54] was greater than 100 µM, the TGI [55] was greater than 100 µM and the TGI [56] was 53.9 µM.
In the case of NNS(=O)(=O)c1ccc(/C=C2\NC(=O)NC2=O)cc1, the TGI [1] is reported as greater than 100 µM, the TGI [2] is reported as greater than 100 µM and the TGI [3] is reported as greater than 100 µM. The TGI [4] was greater than 100 µM, the TGI [5] was greater than 100 µM and the TGI [6] was greater than 100 µM. The TGI [7] was greater than 100 µM, the TGI [8] was greater than 100 µM and the TGI [9] was greater than 100 µM. For the same compound, the TGI [10] was greater than 100 µM, the TGI [11] was greater than 100 µM and the TGI [12] was greater than 100 µM. For the same compound, the TGI [13] was greater than 100 µM, the TGI [14] was greater than 100 µM and the TGI [57] was greater than 100 µM. For the same compound, the TGI [15] was greater than 100 µM, the TGI [16] was greater than 100 µM and the TGI [17] was greater than 100 µM. The TGI [18] was greater than 100 µM, the TGI [19] was greater than 100 µM and the TGI [20] was greater than 100 µM. It also gave a TGI [21] greater than 100 µM, a TGI [22] greater than 100 µM and a TGI [23] greater than 100 µM. It also gave a TGI [24] greater than 100 µM, a TGI [25] greater than 100 µM and a TGI [26] greater than 100 µM. The TGI [27] was greater than 100 µM, the TGI [28] was greater than 100 µM and the TGI [29] was greater than 100 µM. The TGI [30] was greater than 100 µM, the TGI [33] was greater than 100 µM and the TGI [34] was greater than 100 µM. The TGI [35] was greater than 100 µM, the TGI [36] was greater than 100 µM and the TGI [37] was greater than 100 µM. For the same compound, the TGI [38] was greater than 100 µM, the TGI [39] was greater than 100 µM and the TGI [40] was greater than 100 µM. It also gave a TGI [41] greater than 100 µM, a TGI [43] greater than 100 µM and a TGI [44] greater than 100 µM. It also gave a TGI [45] greater than 100 µM, a TGI [46] greater than 100 µM and a TGI [47] greater than 100 µM. The TGI [48] was greater than 100 µM, the TGI [49] was greater than 100 µM and the TGI [50] was greater than 100 µM. It also gave a TGI [51] greater than 100 µM, a TGI [52] greater than 100 µM and a TGI [53] greater than 100 µM. It also gave a TGI [54] greater than 100 µM, a TGI [55] greater than 100 µM and a TGI [56] greater than 100 µM.
